Test results taken from PubChem BioAssay AID330 (DTP/NCI, 2004).
Where “and” joins values, the source holds several entries; their conditions need not be identical. Identical values can stand only once. Inconclusive results and toxic doses are left out. Numbered stars: 1 amine (or outer) side, 2 acyl side, 3 side chain; on linkers, the order of the positions; unused ones are H or OH. Bridge positions count the residues as written; N and C are the ends. Square brackets hold non-standard residues; d marks the D form. Peptide text beside a SMILES is read from it. I, II: the chains in the order shown. * marks the point of attachment. ξ: configuration not given here. Quinaldoyl(3-OH,6-OMe) = COc1ccc2nc(C(=O)*)c(O)cc2c1; X8 = CC(=O)OC1CC=NN([*:1])C1C(=O)[*:2]; ξNMeVal(3-OH) = CNC(C(=O)O)C(C)(C)O; X7 = O=C(C1C(O)CC=NN1[*:1])[*:2]; Sar = CNCC(=O)O

Tested on: P388 leukemia ip, CD2F1 mice, survival T/C
Assay: NCI In Vivo Anticancer Drug Screen. Data for tumor model P388 Leukemia (intraperitoneal) in CD2F1 (CDF1) mice
Conditions: endpoint: median survival time, higher = longer survival
Summary of the method: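 Mice carrying the transplanted tumor received test compound or vehicle. Survival was recorded in each group, and the value is the treated-group measurement divided by that of the vehicle-treated control group.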

[1] = dose: 60.0 mg/kg/injection, schedule: Q01DX005 (ip), vehicle: saline with Tween-80
[2] = dose: 120.0 mg/kg/injection, schedule: Q01DX005 (ip), vehicle: saline with Tween-80
[3] = dose: 50.0 mg/kg/injection, schedule: Q01DX009 (ip), vehicle: saline with Tween-80
[4] = dose: 100.0 mg/kg/injection, schedule: Q01DX009 (ip), vehicle: saline with Tween-80
[5] = dose: 50.0 mg/kg/injection, schedule: Q01DX009 (ip), vehicle: Klucel (hydroxypropylcellulose) (HPC)
[6] = dose: 100.0 mg/kg/injection, schedule: Q01DX009 (ip), vehicle: Klucel (hydroxypropylcellulose) (HPC)
[7] = dose: 200.0 mg/kg/injection, schedule: Q01DX009 (ip), vehicle: Klucel (hydroxypropylcellulose) (HPC)
[8] = dose: 50.0 mg/kg/injection, schedule: Q01DX005 (ip), vehicle: Klucel (hydroxypropylcellulose) (HPC)
[9] = dose: 100.0 mg/kg/injection, schedule: Q01DX005 (ip), vehicle: Klucel (hydroxypropylcellulose) (HPC)
[10] = dose: 200.0 mg/kg/injection, schedule: Q01DX005 (ip), vehicle: Klucel (hydroxypropylcellulose) (HPC)

In the case of COc1ccc2nc(C(=O)NC3COC(=O)C(C(C)(C)O)N(C)C(=O)CN(C)C(=O)CNC(=O)C4C(OC(C)=O)CC=NN4C(=O)C(NC(=O)c4nc5ccc(OC)cc5cc4O)COC(=O)C(C(C)(C)O)N(C)C(=O)CN(C)C(=O)CNC(=O)C4C(O)CC=NN4C3=O)c(O)cc2c1 (stereo not drawn) (I: {Quinaldoyl(3-OH,6-OMe)}-S[X7]G[Sar][ξNMeVal(3-OH)] / II: {Quinaldoyl(3-OH,6-OMe)}-S[X8]G[Sar][ξNMeVal(3-OH)]; ester I:1-II:C, I:C-II:1; configuration not given here), the T/C (dose: 6.25 micrograms/kg/injection, schedule: Q01DX005 (ip), vehicle: DMSO) is reported as 108 % of control, the T/C (dose: 12.5 micrograms/kg/injection, schedule: Q01DX005 (ip), vehicle: DMSO) is reported as 112 % of control and the T/C (dose: 25.0 micrograms/kg/injection, schedule: Q01DX005 (ip), vehicle: DMSO) is reported as 118 % of control. For the same compound, the T/C (dose: 50.0 micrograms/kg/injection, schedule: Q01DX005 (ip), vehicle: DMSO) was 119 % of control and the T/C (dose: 100.0 micrograms/kg/injection, schedule: Q01DX005 (ip), vehicle: DMSO) was 123 % of control.
In the case of N=c1c(C(N)=O)cnc2n1CCCCC2, the T/C (dose: 25.0 mg/kg/injection, schedule: Q04DX003 (ip), vehicle: saline) is reported as 100 % of control, the T/C (dose: 50.0 mg/kg/injection, schedule: Q04DX003 (ip), vehicle: saline) is reported as 100 % of control and the T/C (dose: 100.0 mg/kg/injection, schedule: Q04DX003 (ip), vehicle: saline) is reported as 98 % of control.
CCCC(=O)O.CCCC(=O)O.CCCC(=O)O.CCCC(=O)O.[Rh].[Rh] was tested, and the T/C (dose: 0.12 mg/kg/injection, schedule: Q01DX009 (ip), vehicle: saline + alcohol) was 116 % of control, the T/C (dose: 0.25 mg/kg/injection, schedule: Q01DX009 (ip), vehicle: saline + alcohol) was 106 % of control and 122 % of control and the T/C (dose: 15.63 micrograms/kg/injection, schedule: Q08HX018 (ip), vehicle: saline + alcohol) was 118 % of control. For the same compound, the T/C (dose: 31.25 micrograms/kg/injection, schedule: Q01DX009 (ip), vehicle: saline + alcohol) was 107 % of control, the T/C (dose: 31.25 micrograms/kg/injection, schedule: Q08HX018 (ip), vehicle: saline + alcohol) was 118 % of control and the T/C (dose: 62.5 micrograms/kg/injection, schedule: Q08HX018 (ip), vehicle: saline + alcohol) was 101 % of control. For the same compound, the T/C (dose: 125.0 micrograms/kg/injection, schedule: Q01DX009 (ip), vehicle: saline + alcohol) was 114 % of control, the T/C (dose: 125.0 micrograms/kg/injection, schedule: Q08HX018 (ip), vehicle: saline + alcohol) was 113 % of control and the T/C (dose: 250.0 micrograms/kg/injection, schedule: Q01DX009 (ip), vehicle: saline + alcohol) was 115 % of control. For the same compound, the T/C (dose: 250.0 micrograms/kg/injection, schedule: Q08HX018 (ip), vehicle: saline + alcohol) was 114 % of control and the T/C (dose: 500.0 micrograms/kg/injection, schedule: Q01DX009 (ip), vehicle: saline + alcohol) was 122 % of control.
C[C@H]1C(=O)OCN1S(=O)(=O)C(C)(C)C was tested, and the T/C [1] was 101 % of control, the T/C [2] was 104 % of control and the T/C (dose: 240.0 mg/kg/injection, schedule: Q01DX005 (ip), vehicle: saline with Tween-80) was 102 % of control.
For O=C1N/C(=C\c2nc3ccccc3s2)c2ccccc21, the T/C [3] was 96 % of control, the T/C [4] was 90 % of control and the T/C (dose: 200.0 mg/kg/injection, schedule: Q01DX009 (ip), vehicle: saline with Tween-80) was 89 % of control.
COC(=O)C1CCCC(Sc2ccccc2)C1=O (stereo not drawn) was tested, and the T/C (dose: 25.0 mg/kg/injection, schedule: Q01DX009 (ip), vehicle: saline with Tween-80) was 101 % of control, the T/C [3] was 101 % of control and the T/C [4] was 109 % of control.
With N#Cc1ccc(N)cc1C#N the T/C [5] was 94 % of control, the T/C [6] was 94 % of control and the T/C [7] was 96 % of control.
For CCCCCCCCCCCCCCCCCC(N)=S, the T/C (dose: 12.5 mg/kg/injection, schedule: Q01DX005 (ip), vehicle: Klucel + Tween-80) was 95 % of control, the T/C (dose: 25.0 mg/kg/injection, schedule: Q01DX005 (ip), vehicle: Klucel + Tween-80) was 95 % of control and the T/C (dose: 50.0 mg/kg/injection, schedule: Q01DX005 (ip), vehicle: Klucel + Tween-80) was 86 % of control and 94 % of control. The T/C (dose: 200.0 mg/kg/injection, schedule: Q01DX005 (ip), vehicle: Klucel + Tween-80) was 87 % of control.
Brc1ccc2c(c1)-c1ccccc1C1=NCCN12 was tested, and the T/C (dose: 5.0 mg/kg/injection, schedule: Q01DX009 (ip), vehicle: saline) was 100 % of control, the T/C (dose: 5.0 mg/kg/injection, schedule: Q04DX003 (ip), vehicle: saline) was 100 % of control and the T/C (dose: 10.0 mg/kg/injection, schedule: Q01DX009 (ip), vehicle: saline) was 100 % of control. The T/C (dose: 10.0 mg/kg/injection, schedule: Q04DX003 (ip), vehicle: saline) was 100 % of control, the T/C (dose: 20.0 mg/kg/injection, schedule: Q01DX009 (ip), vehicle: saline) was 95 % of control and the T/C (dose: 20.0 mg/kg/injection, schedule: Q04DX003 (ip), vehicle: saline) was 100 % of control and 104 % of control.
NC1=NN(S(=O)(=O)c2ccccc2)CC1 was tested, and the T/C [8] was 94 % of control, the T/C [9] was 99 % of control and the T/C [10] was 98 % of control.
With CCOC(=O)CCC(NC(=O)c1ccc(I)cc1)C(=O)OCC (stereo not drawn) the T/C [5] was 100 % of control, the T/C [6] was 93 % of control and the T/C [7] was 102 % of control.
For [Se]=P(c1ccccc1)(c1ccccc1)N1CC1, the T/C (dose: 12.5 mg/kg/injection, schedule: Q01DX001 (ip), vehicle: Klucel (hydroxypropylcellulose) (HPC)) was 99 % of control, the T/C (dose: 25.0 mg/kg/injection, schedule: Q01DX001 (ip), vehicle: Klucel (hydroxypropylcellulose) (HPC)) was 104 % of control and the T/C (dose: 50.0 mg/kg/injection, schedule: Q01DX001 (ip), vehicle: Klucel (hydroxypropylcellulose) (HPC)) was 101 % of control.
CCCCCCCCCCCCCCCc1cccc(O)c1C(=O)O was tested, and the T/C (dose: 12.5 mg/kg/injection, schedule: Q01DX005 (ip), vehicle: distilled water + Tween-80) was 106 % of control, the T/C (dose: 20.0 mg/kg/injection, schedule: Q01DX009 (ip), vehicle: saline with Tween-80) was 113 % of control and the T/C (dose: 25.0 mg/kg/injection, schedule: Q01DX005 (ip), vehicle: distilled water + Tween-80) was 102 % of control. The T/C (dose: 40.0 mg/kg/injection, schedule: Q01DX009 (ip), vehicle: saline with Tween-80) was 111 % of control, the T/C (dose: 50.0 mg/kg/injection, schedule: Q01DX005 (ip), vehicle: distilled water + Tween-80) was 107 % of control and the T/C (dose: 80.0 mg/kg/injection, schedule: Q01DX009 (ip), vehicle: saline with Tween-80) was 109 % of control. For the same compound, the T/C (dose: 100.0 mg/kg/injection, schedule: Q01DX005 (ip), vehicle: distilled water + Tween-80) was 117 % of control.
For CC12CCC(c3cn[nH]c31)C2(C)C (stereo not drawn), the T/C (dose: 60.0 mg/kg/injection, schedule: Q01DX005 (ip), vehicle: Klucel (hydroxypropylcellulose) (HPC)) was 100 % of control, the T/C (dose: 120.0 mg/kg/injection, schedule: Q01DX005 (ip), vehicle: Klucel (hydroxypropylcellulose) (HPC)) was 100 % of control and the T/C (dose: 240.0 mg/kg/injection, schedule: Q01DX005 (ip), vehicle: Klucel (hydroxypropylcellulose) (HPC)) was 100 % of control.
For C=Cc1ccc(NC(=O)CCn2ccc(N)nc2=O)cc1, the T/C (dose: 100.0 mg/kg/injection, schedule: Q01DX001 (ip), vehicle: saline with Tween-80) was 102 % of control, the T/C (dose: 200.0 mg/kg/injection, schedule: Q01DX001 (ip), vehicle: saline with Tween-80) was 102 % of control and the T/C (dose: 400.0 mg/kg/injection, schedule: Q01DX001 (ip), vehicle: saline with Tween-80) was 103 % of control.
CC(C)(C)OC(=O)N1CCCC1C(=O)O (stereo not drawn) was tested, and the T/C [8] was 100 % of control, the T/C [9] was 106 % of control and the T/C [10] was 99 % of control.
For CCC(=O)N(C)C(C)C(=O)OC1CC(=O)N(C)c2cc(cc(OC)c2Cl)CC(CO)=C/C=C/C(OC)C2(O)CC(OC(=O)N2)C(C)C2OC12C (stereo not drawn), the T/C (dose: 50.0 micrograms/kg/injection, schedule: Q01DX009 (ip), vehicle: saline + alcohol) was 124 % of control, the T/C (dose: 100.0 micrograms/kg/injection, schedule: Q01DX009 (ip), vehicle: saline + alcohol) was 158 % of control and the T/C (dose: 400.0 micrograms/kg/injection, schedule: Q01DX009 (ip), vehicle: saline + alcohol) was 150 % of control and 158 % of control. The T/C (dose: 800.0 micrograms/kg/injection, schedule: Q01DX009 (ip), vehicle: saline + alcohol) was 155 % of control.
O=C(C(c1ccccc1)c1ccccc1)N1CCCCC1c1ccccc1 (stereo not drawn) was tested, and the T/C (dose: 50.0 mg/kg/injection, schedule: Q01DX005 (ip), vehicle: saline with Tween-80) was 102 % of control, the T/C (dose: 100.0 mg/kg/injection, schedule: Q01DX005 (ip), vehicle: saline with Tween-80) was 92 % of control and the T/C (dose: 200.0 mg/kg/injection, schedule: Q01DX005 (ip), vehicle: saline with Tween-80) was 97 % of control.
With CC(=O)Nc1nnc(-c2coc3ccccc3c2=O)s1 the T/C [1] was 91 % of control and the T/C [2] was 91 % of control.
COc1ccccc1N=C(C)C1C(=O)c2ccccc2C1=O was tested, and the T/C [8] was 104 % of control, the T/C [9] was 104 % of control and the T/C [10] was 100 % of control.
